According to patent publication US10730872B2, “Pesticidally active heterocyclic derivatives with sulphur containing sustitutents” (SYNGENTA PARTICIPATIONS AG, priority 2015, dated 2020):

Tests used:
Bemisia tabaci = Bemisia tabaci (Cotton White Fly): Feeding/Contact Activity; type: in vivo; conditions: foliar, 144 h, application rate of 200 ppm, sprayed cotton leaf discs, adult white flies, 6 days after incubation
Method: Cotton leaf discs were placed on agar in 24-well microtiter plates and sprayed with aqueous test solutions prepared from 10,000 ppm DMSO stock solutions. After drying the leaf discs were infested with adult white flies. The samples were checked for mortality 6 days after incubation.

Diabrotica balteata = Diabrotica balteata (Corn Root Worm); type: in vivo; conditions: 96 h, application rate of 200 ppm, sprayed maize sprouts, L2 larvae, 4 days after infestation, read-out: effect in at least one of the two categories (mortality or growth inhibition)
Method: Maize sprouts placed onto an agar layer in 24-well microtiter plates were treated with aqueous test solutions prepared from 10,000 ppm DMSO stock solutions by spraying. After drying, the plates were infested with L2 larvae (6 to 10 per well). The samples were assessed for mortality and growth inhibition in comparison to untreated samples 4 days after infestation.

Euschistus heros = Euschistus heros (Neotropical Brown Stink Bug); type: in vivo; conditions: 120 h, application rate of 200 ppm, sprayed soybean leaves, N2 nymphs, 5 days after infestation, read-out: effect in at least one of the two categories (mortality or growth inhibition)
Method: Soybean leaves on agar in 24-well microtiter plates were sprayed with aqueous test solutions prepared from 10,000 ppm DMSO stock solutions. After drying the leaves were infested with N2 nymphs. The samples were assessed for mortality and growth inhibition in comparison to untreated samples 5 days after infestation.

Myzus persicae [1] = assay: Myzus persicae (Green Peach Aphid): Feeding/Contact Activity; type: in vivo; conditions: foliar, 144 h, application rate of 200 ppm, sprayed sunflower leaf discs, aphid population of mixed ages, 6 days after infestation
Method: (§1) Sunflower leaf discs were placed onto agar in a 24-well microtiter plate and sprayed with aqueous test solutions prepared from 10,000 ppm DMSO stock solutions. After drying, the leaf discs were infested with an aphid population of mixed ages. The samples were assessed for mortality 6 days after infestation.

Plutella xylostella = Plutella xylostella (Diamond Back Moth); type: in vivo; conditions: 120 h, application rate of 200 ppm, artificial diet, L2 larvae, 5 days after infestation, read-out: effect in at least one of the two categories (mortality or growth inhibition)
Method: 24-well microtiter plates with artificial diet were treated with aqueous test solutions prepared from 10,000 ppm DMSO stock solutions by pipetting. After drying, the plates were infested with L2 larvae (10 to 15 per well). The samples were assessed for mortality and growth inhibition in comparison to untreated samples 5 days after infestation.

Spodoptera littoralis [2] = assay: Spodoptera littoralis (Egyptian Cotton Leaf Worm), sprayed cotton leaf discs; type: in vivo; conditions: foliar, 72 h, application rate of 200 ppm, L1 larvae, 3 days after infestation
Summary of the method: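 Cotton leaf discs on agar sprayed with aqueous dilutions of 10,000 ppm DMSO stocks, dried, then infested with five L1 larvae. Mortality, anti-feeding and growth inhibition scored against untreated discs 3 days after infestation. Control recorded when any one category exceeds the untreated sample.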

Spodoptera littoralis [3] = assay: Spodoptera littoralis (Egyptian Cotton Leaf Worm), uptake by lettuce roots from agar; type: in vivo; conditions: 144 h, test rate of 12.5 ppm, mixed with agar, absorbed by lettuce roots, Spodoptera eggs, 6 days after infestation, read-out: effect in at least one of the three categories (mortality, anti-feeding, or growth inhibition)
Summary of the method: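 Compound from 10,000 ppm DMSO stock mixed into agar; lettuce seeds grew 7 days, taking compound up via roots into the lid plate. Cut leaves infested with Spodoptera eggs; mortality, anti-feedant effect and growth inhibition scored against untreated samples 6 days after infestation.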

Thrips tabaci = Thrips tabaci (Onion Thrips) Feeding/Contact Activity; type: in vivo; conditions: foliar, 144 h, application rate of 200 ppm, sprayed sunflower leaf discs, thrips population of mixed ages, 6 days after infestation
Method: as §1, with “on” for “onto”, “in” for “in a”, “plates” for “plate”, “drying” for “drying,”, “a thrips” for “an aphid”

[4] = system: Frankliniella occidentalis; assay: Frankliniella occidentalis (Western Flower Thrips): Feeding/Contact Activity; type: in vivo; conditions: foliar, 168 h, application rate of 200 ppm, sprayed sunflower leaf discs, population of mixed ages, 7 days after infestation
Method: Sunflower leaf discs were placed on agar in 24-well microtiter plates and sprayed with aqueous test solutions prepared from 10,000 DMSO stock solutions. After drying the leaf discs were infested with a Frankliniella population of mixed ages. The samples were assessed for mortality 7 days after infestation.

Tetranychus urticae = Tetranychus urticae (Two-Spotted Spider Mite): Feeding/Contact Activity; type: in vivo; conditions: foliar, 192 h, application rate of 200 ppm, sprayed bean leaf discs, mixed population (mobile stages), 8 days after infestation
Method: Bean leaf discs on agar in 24-well microtiter plates were sprayed with aqueous test solutions prepared from 10,000 ppm DMSO stock solutions. After drying the leaf discs were infested with a mite population of mixed ages. The samples were assessed for mortality on mixed population (mobile stages) 8 days after infestation.

Aedes aegypti = assay: Aedes Aegypti (Yellow Fever Mosquito); type: in vivo; conditions: 200 ppm in ethanol, dry deposit in 12 well plates, adult females, after 48 h and/or 24 h
Method: Test solutions, at an application rate of 200 ppm in ethanol, were applied to 12 well tissue culture plates. Once the deposits were dry, five, two to five day old adult female Aedes aegypti were added to each well, and sustained with a 10% sucrose solution in a cotton wool plug. Assessment of knockdown was made one hour after introduction, and mortality was assessed at 24 and 48 hours after introduction.

Myzus persicae [5] = assay: Myzus persicae (Green Peach Aphid). Intrinsic Activity; type: in vivo; conditions: 120 h, test rate of 12 ppm, mixed with sucrose solution, Parafilm, 5 days after infestation
Method: Test compounds prepared from 10,000 ppm DMSO stock solutions were applied by pipette into 24-well microtiter plates and mixed with sucrose solution. The plates were closed with a stretched Parafilm. A plastic stencil with 24 holes was placed onto the plate and infested pea seedlings were placed directly on the Parafilm. The infested plate was closed with a gel blotting paper and another plastic stencil and then turned upside down. The samples were assessed for mortality 5 days after infestation.

CCS(=O)(=O)c1cc(Br)c(N)nc1-c1nc2cc(C(F)(F)F)n(C3CC3)c(=O)c2n1C [Compound A44, 2-(6-amino-5-bromo-3-ethylsulfonyl-2-pyridyl)-5-cyclopropyl-3-methyl-6-(trifluoromethyl)imidazo[4,5-c]pyridin-4-one]
≥ 80%: mortality at 200 ppm (Bemisia tabaci) | effect mortality or growth inhibition at 200 ppm (Diabrotica balteata) | percent effect (mortality or growth inhibition) at 200 ppm (Euschistus heros) | mortality at 200 ppm (Myzus persicae [1]) | percent effect (mortality or growth inhibition) at 200 ppm (Plutella xylostella) | percent control (mortality, anti-feeding effect or growth inhibition) at 200 ppm (Spodoptera littoralis [2]) | percent effect (mortality, anti-feeding or growth inhibition) at 12.5 ppm (Spodoptera littoralis [3]) | mortality at 200 ppm (Thrips tabaci)

CCn1c(C(F)(F)F)cc2nc(-c3ncc(NC4CC4)cc3S(=O)(=O)CC)n(C)c2c1=O [Compound A1]
≥ 80%: effect mortality or growth inhibition at 200 ppm (Diabrotica balteata) | percent effect (mortality or growth inhibition) at 200 ppm (Euschistus heros) | mortality at 200 ppm [4] | mortality at 200 ppm (Myzus persicae [1]) | percent effect (mortality or growth inhibition) at 200 ppm (Plutella xylostella) | percent control (mortality, anti-feeding effect or growth inhibition) at 200 ppm (Spodoptera littoralis [2]) | mortality at 200 ppm (Tetranychus urticae) | pest or weed control at 200 ppm (Aedes aegypti)

CCS(=O)(=O)c1cc(Br)c(NC)nc1-c1nc2cc(C(F)(F)F)n(C3CC3)c(=O)c2n1C [Compound A52, 2-[5-bromo-3-ethylsulfonyl-6-(methylamino)-2-pyridyl]-5-cyclopropyl-3-methyl-6-(trifluoromethyl)imidazo[4,5-c]pyridin-4-one]
≥ 80%: mortality at 200 ppm (Bemisia tabaci) | effect mortality or growth inhibition at 200 ppm (Diabrotica balteata) | percent effect (mortality or growth inhibition) at 200 ppm (Euschistus heros) | mortality at 200 ppm (Myzus persicae [1]) | percent effect (mortality or growth inhibition) at 200 ppm (Plutella xylostella) | percent control (mortality, anti-feeding effect or growth inhibition) at 200 ppm (Spodoptera littoralis [2]) | percent effect (mortality, anti-feeding or growth inhibition) at 12.5 ppm (Spodoptera littoralis [3]) | mortality at 200 ppm (Thrips tabaci)

CCn1c(C(F)(F)F)cc2nc(-c3ncc(N(C(=O)C4CC4)S(C)(=O)=O)cc3S(=O)(=O)CC)n(C)c2c1=O [Compound A21, N-[6-[5-ethyl-3-methyl-4-oxo-6-(trifluoromethyl)imidazo[4,5-c]pyridin-2-yl]-5-ethylsulfonyl-3-pyridyl]-N-methylsulfonyl-cyclopropanecarboxamide]
232 to 234 °C: melting point

CCSc1cc(NC(=O)C2CC2)cnc1-c1nc2cc(C(F)(F)F)n(CC)c(=O)c2n1C [Compound A59, N-[6-[5-ethyl-3-methyl-4-oxo-6-(trifluoromethyl)imidazo[4,5-c]pyridin-2-yl]-5-ethylsulfanyl-3-pyridyl]cyclopropanecarboxamide]
≥ 80%: effect mortality or growth inhibition at 200 ppm (Diabrotica balteata) | mortality at 200 ppm (Myzus persicae [1]) | mortality at 12 ppm (Myzus persicae [5]) | percent effect (mortality or growth inhibition) at 200 ppm (Plutella xylostella) | percent control (mortality, anti-feeding effect or growth inhibition) at 200 ppm (Spodoptera littoralis [2])
